Converted amounts (≈) assume the structure as drawn. The source made the active and inactive calls. How the calls were made is not given here.
Tests used:
[1] = Partition coefficient, log P of the compound; assay type: physicochemical; details: octanol/water
Staphylococcus aureus = experiment: Antibacterial activity against Staphylococcus aureus 134/93 after 24 hrs by broth microdilution method; assay type: functional; details: for MIC: Staphylococcus aureus, 134/93, 24 h
Candida albicans = experiment: Antibacterial activity against Candida albicans after 24 hrs by broth microdilution method; assay type: functional, organism-based
Escherichia coli = experiment: Antibacterial activity against Escherichia coli after 24 hrs by broth microdilution method; assay type: functional, organism-based
[2] = test system: Mycolicibacterium smegmatis; experiment: Antibacterial activity against Mycobacterium smegmatis SG987 after 24 hrs by broth microdilution method; assay type: functional; details: for MIC: Mycolicibacterium smegmatis, SG987, 24 h

Structure (SMILES) | logP [1] | MIC (Staphylococcus aureus) | MIC [2] | -logMIC (Staphylococcus aureus) | Activity (Candida albicans) | Activity (Escherichia coli) | -logMIC [2]
COc1cccc(-c2[nH]c3ccc(OC)cc3c2C2=C(Br)C(=O)NC2=O)c1 | 2.79 | 1.9 µM (≈ 0.812 µg/mL) | 15.8 µM (≈ 6.77 µg/mL) | 5.7 | inactive | inactive | 4.8
Cc1cccc(NC(=O)CCCc2[nH]c3ccccc3c2C2=C(Br)C(=O)NC2=O)c1 | 2.56 | 0.79 µM (≈ 0.368 µg/mL) | 27 µM (≈ 12.6 µg/mL) | 6.1 | inactive | inactive | 4.6
CCCCCc1ccc2[nH]c(-c3ccccc3)c(C3=C(Br)C(=O)NC3=O)c2c1 | 4.07 | 0.91 µM (≈ 0.398 µg/mL) | 3.6 µM (≈ 1.57 µg/mL) | 6 | inactive | inactive | 5.5
CCCc1cccc2c(C3=C(Br)C(=O)NC3=O)c(-c3ccc(OC)cc3)[nH]c12 | 3.58 | 0.5 µM (≈ 0.22 µg/mL) | 14.2 µM (≈ 6.24 µg/mL) | 6.3 | inactive | inactive | 4.8
CCCCCCCCOc1ccc(-c2[nH]c3ccccc3c2C2=C(Br)C(=O)NC2=O)cc1 | 5.21 | 50 µM (≈ 24.8 µg/mL) | 100 µM (≈ 49.5 µg/mL) | 4.3 | inactive | inactive | 4
CCCCCCOc1ccc2[nH]c(-c3cccc(OC)c3)c(C3=C(Br)C(=O)NC3=O)c2c1 | 3.92 | 12.6 µM (≈ 6.27 µg/mL) | 6.31 µM (≈ 3.14 µg/mL) | 4.9 | inactive | inactive | 5.2
Cc1ccc(NC(=O)CCCc2[nH]c3ccccc3c2C2=C(Br)C(=O)NC2=O)cc1 | 2.56 | 1.58 µM (≈ 0.737 µg/mL) | 27 µM (≈ 12.6 µg/mL) | 5.8 | inactive | inactive | 4.6
CCCCOc1ccc2[nH]c(-c3cccc(OC)c3)c(C3=C(Br)C(=O)NC3=O)c2c1 | 3.46 | 3.3 µM (≈ 1.55 µg/mL) | 6.31 µM (≈ 2.96 µg/mL) | 5.5 | inactive | inactive | 5.2
Cc1cccc2c(C3=C(Br)C(=O)NC3=O)c(-c3ccccc3)[nH]c12 | 3.19 | 3.98 µM (≈ 1.52 µg/mL) | 32.6 µM (≈ 12.4 µg/mL) | 5.4 | inactive | inactive | 4.5
CCc1cccc2c(C3=C(Br)C(=O)NC3=O)c(-c3ccccc3)[nH]c12 | 3.42 | 2.51 µM (≈ 0.992 µg/mL) | 31.7 µM (≈ 12.5 µg/mL) | 5.7 | inactive | inactive | 4.5
CCCCc1ccc2[nH]c(-c3cccc(OC)c3)c(C3=C(Br)C(=O)NC3=O)c2c1 | 3.81 | 3.4 µM (≈ 1.54 µg/mL) | 3.16 µM (≈ 1.43 µg/mL) | 5.5 | inactive | inactive | 5.5
O=C(CCCc1[nH]c2ccccc2c1C1=C(Br)C(=O)NC1=O)Nc1ccccc1 | 2.56 | 1.7 µM (≈ 0.769 µg/mL) | 55 µM (≈ 24.9 µg/mL) | 5.8 | inactive | inactive | 4.3
COc1ccc2[nH]c(-c3ccccc3)c(C3=C(Br)C(=O)NC3=O)c2c1 | 2.48 | 1 µM (≈ 0.397 µg/mL) | 31.5 µM (≈ 12.5 µg/mL) | 6 | inactive | inactive | 4.5

Compounds with a lower MIC (Staphylococcus aureus), results first:

logP [1] | MIC (Staphylococcus aureus) | MIC [2] | Structure (SMILES) | -logMIC (Staphylococcus aureus) | Activity (Candida albicans) | Activity (Escherichia coli) | -logMIC [2]
2.56 | 0.32 µM (≈ 0.149 µg/mL) | 17.1 µM (≈ 7.97 µg/mL) | Cc1ccccc1NC(=O)CCCc1[nH]c2ccccc2c1C1=C(Br)C(=O)NC1=O | 6.5 | inactive | inactive | 4.8
3.42 | 0.11 µM (≈ 0.0483 µg/mL) | 28.4 µM (≈ 12.5 µg/mL) | CCCCOc1ccc2[nH]c(-c3ccccc3)c(C3=C(Br)C(=O)NC3=O)c2c1 | 6.9 | inactive | inactive | 4.5
2.88 | 0.13 µM (≈ 0.0496 µg/mL) | 4.1 µM (≈ 1.56 µg/mL) | Cc1ccc2[nH]c(-c3ccccc3)c(C3=C(Br)C(=O)NC3=O)c2c1 | 6.9 | inactive | inactive | 5.4
3.3 | 0.21 µM (≈ 0.0994 µg/mL) | 25.1 µM (≈ 11.9 µg/mL) | O=C1NC(=O)C(c2c(-c3ccc(OCc4ccccc4)cc3)[nH]c3ccccc23)=C1Br | 6.7 | inactive | inactive | 4.6
2.42 | 0.18 µM (≈ 0.0789 µg/mL) | 21 µM (≈ 9.2 µg/mL) | O=C(CCc1[nH]c2ccccc2c1C1=C(Br)C(=O)NC1=O)Nc1ccccc1 | 6.7 | inactive | inactive | 4.7
3.88 | 0.25 µM (≈ 0.106 µg/mL) | 14.7 µM (≈ 6.22 µg/mL) | CCCCc1cccc2c(C3=C(Br)C(=O)NC3=O)c(-c3ccccc3)[nH]c12 | 6.6 | inactive | inactive | 4.8
2.85 | 0.1 µM (≈ 0.0494 µg/mL) | 12.6 µM (≈ 6.23 µg/mL) | O=C(CCCCCCc1[nH]c2ccccc2c1C1=C(Br)C(=O)NC1=O)Nc1ccccc1 | 7 | inactive | inactive | 4.9
3.87 | 0.45 µM (≈ 0.198 µg/mL) | 15.8 µM (≈ 6.96 µg/mL) | CCCCOc1ccc(-c2[nH]c3ccccc3c2C2=C(Br)C(=O)NC2=O)cc1 | 6.3 | inactive | inactive | 4.8
2.42 | 0.32 µM (≈ 0.127 µg/mL) | 15.8 µM (≈ 6.3 µg/mL) | COc1ccc(-c2[nH]c3ccccc3c2C2=C(Br)C(=O)NC2=O)cc1 | 6.5 | inactive | inactive | 4.8
2.85 | 0.12 µM (≈ 0.0494 µg/mL) | 7.6 µM (≈ 3.13 µg/mL) | COc1ccc(-c2[nH]c3ccc(C)cc3c2C2=C(Br)C(=O)NC2=O)cc1 | 6.9 | inactive | inactive | 5.1
3.45 | 0.45 µM (≈ 0.198 µg/mL) | 1.8 µM (≈ 0.791 µg/mL) | CCCc1ccc2[nH]c(-c3ccc(OC)cc3)c(C3=C(Br)C(=O)NC3=O)c2c1 | 6.3 | inactive | inactive | 5.7
3.23 | 0.23 µM (≈ 0.0978 µg/mL) | 3.67 µM (≈ 1.56 µg/mL) | CCc1ccc2[nH]c(-c3ccc(OC)cc3)c(C3=C(Br)C(=O)NC3=O)c2c1 | 6.6 | inactive | inactive | 5.4
3.12 | 0.2 µM (≈ 0.0823 µg/mL) | 7.94 µM (≈ 3.27 µg/mL) | COc1cccc(-c2[nH]c3ccc(C)cc3c2C2=C(Br)C(=O)NC2=O)c1 | 6.6 | inactive | inactive | 5.1

Source: ChEMBL document CHEMBL1149805, “Antibacterial activity of a novel series of 3-bromo-4-(1H-3-indolyl)-2,5-dihydro-1H-2,5-pyrroledione derivatives--an extended structure-activity relationship study” (Eur J Med Chem, 2008)
